We go through 23 molecules from ChEMBL document CHEMBL6078723, “Novel steroidal β-carboline derivatives as promising antibacterial candidates against methicillin-resistant Staphylococcus aureus” (Eur J Med Chem, 2025).

What all share (format): functional
For test [1], the system named is Staphylococcus aureus. Nature of the test: Antibacterial activity against methicillin-resistant Staphylococcus aureus CGMCC1.12409.
The subject of test [2] is Staphylococcus aureus. Nature of the test: Antibacterial activity against Staphylococcus aureus CGMCC1.8721.
The test system of test [3] is Staphylococcus aureus. The test is described as follows: Antibacterial activity against methicillin-resistant Staphylococcus aureus ATCC 33591.
Test [4] concerns Staphylococcus aureus. Nature of the test: Antibacterial activity against methicillin-resistant Staphylococcus aureus ATCC 43300.
For test [5], the system named is Staphylococcus aureus. Nature of the test: Bactericidal activity against methicillin-resistant Staphylococcus aureus CGMCC1.12409 by CLSI based method.
Test [6] relates to Staphylococcus aureus. Nature of the test: Bactericidal activity against Staphylococcus aureus CGMCC1.8721 by CLSI based method.
Test [7] deals with Staphylococcus aureus. The test is described as follows: Bactericidal activity against methicillin-resistant Staphylococcus aureus ATCC 43300 by CLSI based method.
The test system of test [8] is Staphylococcus aureus. Nature of the test: Bactericidal activity against methicillin-resistant Staphylococcus aureus ATCC 33591 by CLSI based method.

SMILES strings stand for the structures.

Take `COc1ccc2[nH]c3c(CC[C@H](C)[C@H]4CC[C@H]5[C@@H]6[C@H](O)C[C@@H]7C[C@H](O)CC[C@]7(C)[C@H]6CC[C@]45C)[n+](Cc4ccc(OC(F)(F)F)cc4)ccc3c2c1.[Br-]`: the MIC against Staphylococcus aureus [1], with Staphylococcus aureus [2], with Staphylococcus aureus [3] and in the test on Staphylococcus aureus [4] was 16 mg/L each time.

As for `CCC[n+]1ccc2c([nH]c3ccc(OC)cc32)c1CC[C@H](C)[C@H]1CC[C@H]2[C@@H]3[C@H](O)C[C@@H]4C[C@H](O)CC[C@]4(C)[C@H]3C[C@H](O)[C@]12C.[Br-]`, the MIC in the test on Staphylococcus aureus [1], against Staphylococcus aureus [2], against Staphylococcus aureus [3] and against Staphylococcus aureus [4] was 16 mg/L throughout.

Turning to `COc1ccc2[nH]c3c(CC[C@H](C)[C@H]4CC[C@H]5[C@@H]6[C@H](O)C[C@@H]7C[C@H](O)CC[C@]7(C)[C@H]6C[C@H](O)[C@]45C)[n+](Cc4ccccc4F)ccc3c2c1.[Br-]`, the MIC (in general, the smallest concentration in the dilution series that meets the test's criterion for growth inhibition) against Staphylococcus aureus [1] came out at 2 mg/L; in the test on Staphylococcus aureus [2], 1 mg/L; against Staphylococcus aureus [3], 4 mg/L; against Staphylococcus aureus [4], 1 mg/L. Further, the MBC (commonly the smallest concentration meeting the test's criterion for killing) came out at 4 mg/L with Staphylococcus aureus [5], 2 mg/L with Staphylococcus aureus [6], 2 mg/L in the test on Staphylococcus aureus [7] and 4 mg/L in the test on Staphylococcus aureus [8].

In the case of `COc1ccc2[nH]c3c(CC[C@H](C)[C@H]4CC[C@H]5[C@@H]6[C@H](O)C[C@@H]7C[C@H](O)CC[C@]7(C)[C@H]6CC[C@]45C)[n+](Cc4ccccc4F)ccc3c2c1.[Br-]`, the MIC with Staphylococcus aureus [1] came to 8 mg/L; against Staphylococcus aureus [2], 4 mg/L; in the test on Staphylococcus aureus [3], 8 mg/L; in the test with Staphylococcus aureus [4] it was 4 mg/L.

`COc1ccc2[nH]c3c(CC[C@H](C)[C@H]4CC[C@H]5[C@@H]6[C@H](O)C[C@@H]7C[C@H](O)CC[C@]7(C)[C@H]6CC[C@]45C)[n+](Cc4ccc(Br)cc4)ccc3c2c1.[Br-]`: the minimal inhibitory concentration (MIC) in the test with Staphylococcus aureus [1] came to 16 mg/L; against Staphylococcus aureus [2], 16 mg/L; against Staphylococcus aureus [3] it was 32 mg/L; with Staphylococcus aureus [4] it was 16 mg/L.

Consider `COc1cccc(C[n+]2ccc3c([nH]c4ccc(OC)cc43)c2CC[C@H](C)[C@H]2CC[C@H]3[C@@H]4[C@H](O)C[C@@H]5C[C@H](O)CC[C@]5(C)[C@H]4C[C@H](O)[C@]23C)c1.[Br-]`, for which the MIC in the test on Staphylococcus aureus [1] is 4 mg/L; with Staphylococcus aureus [2], 1 mg/L; in the test on Staphylococcus aureus [3] it was 4 mg/L; with Staphylococcus aureus [4] it was 1 mg/L. The MBC in the test with Staphylococcus aureus [5] turned out to be 8 mg/L; against Staphylococcus aureus [6], 2 mg/L; against Staphylococcus aureus [7] it was 4 mg/L; against Staphylococcus aureus [8] it was 8 mg/L.

On to `COc1ccc2[nH]c3c(CC[C@H](C)[C@H]4CC[C@H]5[C@@H]6[C@H](O)C[C@@H]7C[C@H](O)CC[C@]7(C)[C@H]6CC[C@]45C)[n+](Cc4ccc(F)cc4)ccc3c2c1.[Br-]`, for which the MIC stood at 4 mg/L against Staphylococcus aureus [1], 4 mg/L against Staphylococcus aureus [2], 8 mg/L in the test with Staphylococcus aureus [3] and 4 mg/L against Staphylococcus aureus [4].

Consider `CCCC[n+]1ccc2c([nH]c3ccc(OC)cc32)c1CC[C@H](C)[C@H]1CC[C@H]2[C@@H]3[C@H](O)C[C@@H]4C[C@H](O)CC[C@]4(C)[C@H]3CC[C@]12C.[Br-]`, for which the MIC against Staphylococcus aureus [1] is 4 mg/L; against Staphylococcus aureus [2] it was 1 mg/L; in the test with Staphylococcus aureus [3], 4 mg/L; in the test with Staphylococcus aureus [4], 4 mg/L. Moreover, the minimum bactericidal concentration (MBC) turned out to be 8 mg/L in the test on Staphylococcus aureus [5], 2 mg/L against Staphylococcus aureus [6], 8 mg/L against Staphylococcus aureus [7] and 16 mg/L in the test with Staphylococcus aureus [8].

With `COc1ccc2[nH]c3c(CC[C@H](C)[C@H]4CC[C@H]5[C@@H]6[C@H](O)C[C@@H]7C[C@H](O)CC[C@]7(C)[C@H]6C[C@H](O)[C@]45C)[n+](Cc4ccc(OC(F)(F)F)cc4)ccc3c2c1.[Br-]`, the MIC against Staphylococcus aureus [1] came to 1 mg/L; in the test with Staphylococcus aureus [2] it was 1 mg/L; in the test with Staphylococcus aureus [3] it was 2 mg/L; in the test with Staphylococcus aureus [4], 1 mg/L. In addition, the minimal bactericidal concentration (MBC) was found to be 2 mg/L in the test with Staphylococcus aureus [5], 1 mg/L with Staphylococcus aureus [6], 2 mg/L with Staphylococcus aureus [7] and 4 mg/L with Staphylococcus aureus [8].

Take `COc1ccc2[nH]c3c(CC[C@H](C)[C@H]4CC[C@H]5[C@@H]6[C@H](O)C[C@@H]7C[C@H](O)CC[C@]7(C)[C@H]6C[C@H](O)[C@]45C)[n+](Cc4ccc(Br)cc4)ccc3c2c1.[Br-]`: the MIC against Staphylococcus aureus [1] came out at 2 mg/L; in the test on Staphylococcus aureus [2], 1 mg/L; against Staphylococcus aureus [3] it was 2 mg/L; with Staphylococcus aureus [4], 2 mg/L. Moreover, the MBC was 4 mg/L in the test with Staphylococcus aureus [5], 2 mg/L against Staphylococcus aureus [6], 2 mg/L in the test on Staphylococcus aureus [7] and 4 mg/L against Staphylococcus aureus [8].

On to `COc1ccc2[nH]c3c(CC[C@H](C)[C@H]4CC[C@H]5[C@@H]6[C@H](O)C[C@@H]7C[C@H](O)CC[C@]7(C)[C@H]6C[C@H](O)[C@]45C)[n+](Cc4ccc(C)cc4)ccc3c2c1.[Br-]`, for which the MIC was 4 mg/L with Staphylococcus aureus [1], 0.5 mg/L in the test on Staphylococcus aureus [2], 4 mg/L in the test with Staphylococcus aureus [3] and 1 mg/L in the test with Staphylococcus aureus [4]. Also, the MBC against Staphylococcus aureus [5] worked out at 8 mg/L; with Staphylococcus aureus [6], 1 mg/L; in the test with Staphylococcus aureus [7], 2 mg/L; against Staphylococcus aureus [8] it was 8 mg/L.

Turning to `CC[n+]1ccc2c([nH]c3ccc(OC)cc32)c1CC[C@H](C)[C@H]1CC[C@H]2[C@@H]3[C@H](O)C[C@@H]4C[C@H](O)CC[C@]4(C)[C@H]3C[C@H](O)[C@]12C.[Br-]`, the MIC against Staphylococcus aureus [1], in the test on Staphylococcus aureus [2], against Staphylococcus aureus [3] and in the test on Staphylococcus aureus [4] was 16 mg/L throughout.

Regarding `COc1ccc2[nH]c3c(CC[C@H](C)[C@H]4CC[C@H]5[C@@H]6[C@H](O)C[C@@H]7C[C@H](O)CC[C@]7(C)[C@H]6CC[C@]45C)[n+](Cc4ccccc4C)ccc3c2c1.[Br-]`, the MIC in the test on Staphylococcus aureus [1], against Staphylococcus aureus [2], in the test on Staphylococcus aureus [3] and with Staphylococcus aureus [4] was 16 mg/L each time.

`COc1ccc2[nH]c3c(CC[C@H](C)[C@H]4CC[C@H]5[C@@H]6[C@H](O)C[C@@H]7C[C@H](O)CC[C@]7(C)[C@H]6CC[C@]45C)[n+](Cc4cccc(F)c4)ccc3c2c1.[Br-]`: the MIC against Staphylococcus aureus [1] stood at 8 mg/L; in the test with Staphylococcus aureus [2], 4 mg/L; in the test on Staphylococcus aureus [3], 8 mg/L; in the test with Staphylococcus aureus [4], 8 mg/L.

As to `CCCC[n+]1ccc2c([nH]c3ccc(OC)cc32)c1CC[C@H](C)[C@H]1CC[C@H]2[C@@H]3[C@H](O)C[C@@H]4C[C@H](O)CC[C@]4(C)[C@H]3C[C@H](O)[C@]12C.[Br-]`, the MIC in the test with Staphylococcus aureus [1], against Staphylococcus aureus [2], against Staphylococcus aureus [3] and in the test on Staphylococcus aureus [4] was 16 mg/L each time.

With `COc1ccc2[nH]c3c(CC[C@H](C)[C@H]4CC[C@H]5[C@@H]6[C@H](O)C[C@@H]7C[C@H](O)CC[C@]7(C)[C@H]6CC[C@]45C)[n+](Cc4ccc(C)cc4)ccc3c2c1.[Br-]`, the MIC against Staphylococcus aureus [1], in the test with Staphylococcus aureus [2], against Staphylococcus aureus [3] and with Staphylococcus aureus [4] was 16 mg/L throughout.

For `CCCCC[n+]1ccc2c([nH]c3ccc(OC)cc32)c1CC[C@H](C)[C@H]1CC[C@H]2[C@@H]3[C@H](O)C[C@@H]4C[C@H](O)CC[C@]4(C)[C@H]3CC[C@]12C.[Br-]`, the MIC in the test with Staphylococcus aureus [1] turned out to be 16 mg/L; against Staphylococcus aureus [2] it was 8 mg/L; against Staphylococcus aureus [3] it was 16 mg/L; with Staphylococcus aureus [4] it was 16 mg/L.

As to `COc1ccc2[nH]c3c(CC[C@H](C)[C@H]4CC[C@H]5[C@@H]6CC[C@@H]7C[C@H](O)CC[C@]7(C)[C@H]6CC[C@]45C)[n+](Cc4ccc(OC(F)(F)F)cc4)ccc3c2c1.[Br-]`, the MIC turned out to be 16 mg/L in the test with Staphylococcus aureus [1], 16 mg/L against Staphylococcus aureus [2], 32 mg/L in the test on Staphylococcus aureus [3] and 16 mg/L in the test with Staphylococcus aureus [4].

On to `COc1ccc(OC)c(C[n+]2ccc3c([nH]c4ccc(OC)cc43)c2CC[C@H](C)[C@H]2CC[C@H]3[C@@H]4[C@H](O)C[C@@H]5C[C@H](O)CC[C@]5(C)[C@H]4CC[C@]23C)c1.[Br-]`, for which the MIC against Staphylococcus aureus [1] was determined as 8 mg/L; with Staphylococcus aureus [2], 4 mg/L; in the test with Staphylococcus aureus [3], 8 mg/L; against Staphylococcus aureus [4] it was 8 mg/L.

Consider `CC[n+]1ccc2c([nH]c3ccc(OC)cc32)c1CC[C@H](C)[C@H]1CC[C@H]2[C@@H]3CC[C@@H]4C[C@H](O)CC[C@]4(C)[C@H]3CC[C@]12C.[Br-]`, for which the MIC with Staphylococcus aureus [1] was found to be 16 mg/L; against Staphylococcus aureus [2], 16 mg/L; in the test with Staphylococcus aureus [3], 32 mg/L; against Staphylococcus aureus [4], 16 mg/L.

Regarding `COc1cccc(C[n+]2ccc3c([nH]c4ccc(OC)cc43)c2CC[C@H](C)[C@H]2CC[C@H]3[C@@H]4[C@H](O)C[C@@H]5C[C@H](O)CC[C@]5(C)[C@H]4CC[C@]23C)c1.[Br-]`, the MIC with Staphylococcus aureus [1] is 8 mg/L; in the test with Staphylococcus aureus [2] it was 4 mg/L; in the test on Staphylococcus aureus [3], 8 mg/L; against Staphylococcus aureus [4], 8 mg/L.

As for `COc1ccc2[nH]c3c(CC[C@H](C)[C@H]4CC[C@H]5[C@@H]6CC[C@@H]7C[C@H](O)CC[C@]7(C)[C@H]6CC[C@]45C)[n+](Cc4ccc(C(F)(F)F)cc4)ccc3c2c1.[Br-]`, the MIC in the test on Staphylococcus aureus [1] is 16 mg/L; in the test on Staphylococcus aureus [2], 16 mg/L; in the test with Staphylococcus aureus [3], 32 mg/L; against Staphylococcus aureus [4], 16 mg/L.

As to `COc1ccc2[nH]c3c(CC[C@H](C)[C@H]4CC[C@H]5[C@@H]6[C@H](O)C[C@@H]7C[C@H](O)CC[C@]7(C)[C@H]6CC[C@]45C)[n+](Cc4cccc(Cl)c4)ccc3c2c1.[Br-]`, the MIC is 16 mg/L against Staphylococcus aureus [1], 16 mg/L with Staphylococcus aureus [2], 32 mg/L against Staphylococcus aureus [3] and 16 mg/L in the test with Staphylococcus aureus [4].
